Data taken from ChEMBL document CHEMBL1201862, “PubChem BioAssay data set” (2004).
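Growth conditions: 96-well plates. Treatment: test compound, 48 hours, 5 concentrations. Analysis: linear interpolation between bracketing concentrations; unreached endpoints set to highest concentration. Abbreviation: GI50, concentration required for 50% inhibition of growth.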 Activity calls are given as the source filed them. No stated cut-off is given here; in the data, active = GI50 up to about 1.1 µM and inactive = higher.

Tests used:
Assay in all cases: DTP human tumour cell line panel, 48 h
[1] = tested on: 786-0
[2] = tested on: A498
[3] = tested on: A549
[4] = tested on: ACHN
[5] = tested on: BT-549
[6] = tested on: CAKI-1
[7] = tested on: CCRF-CEM
[8] = tested on: COLO 205
[9] = tested on: DU-145
[10] = tested on: EKVX
[11] = tested on: HCC 2998
[12] = tested on: HCT-116
[13] = tested on: HCT-15
[14] = tested on: HL-60
[15] = tested on: HOP-62
[16] = tested on: HOP-92
[17] = tested on: HT-29
[18] = tested on: Hs-578T
[19] = tested on: IGROV-1
[20] = tested on: K562
[21] = tested on: KM12
[22] = tested on: LOX IMVI
[23] = tested on: M14
[24] = tested on: MCF7
[25] = tested on: MDA-MB-231
[26] = tested on: MDA-MB-435
[27] = tested on: MDA-N
[28] = tested on: MOLT-4
[29] = tested on: Malme-3M
[30] = tested on: NCI-H226
[31] = tested on: NCI-H23
[32] = tested on: NCI-H460
[33] = tested on: NCI-H522
[34] = tested on: NCI/ADR-RES
[35] = tested on: OVCAR-3
[36] = tested on: OVCAR-4
[37] = tested on: OVCAR-5
[38] = tested on: OVCAR-8
[39] = tested on: PC-3
[40] = tested on: RPMI-8226
[41] = tested on: RXF 393
[42] = tested on: SF-268
[43] = tested on: SF-295
[44] = tested on: SF-539
[45] = tested on: SK-MEL-28
[46] = tested on: SK-MEL-2
[47] = tested on: SK-MEL-5
[48] = tested on: SK-OV-3
[49] = tested on: SN12C
[50] = tested on: SNB-19
[51] = tested on: SNB-75
[52] = tested on: SR
[53] = tested on: SW-620
[54] = tested on: T47D
[55] = tested on: TK-10
[56] = tested on: U-251
[57] = tested on: UACC-257
[58] = tested on: UACC-62
[59] = tested on: UO-31

CN(C)CC1CCC/C(=C\c2ccc(OC(=O)/C=C/c3ccc(Cl)c(Cl)c3)cc2)C1=O (stereo not drawn)
GI50 [1]: 1.83 µM (inactive) | GI50 [2]: 7.89 µM (inactive) | GI50 [3]: 5.86 µM (inactive) | GI50 [4]: 1.82 µM (inactive) | GI50 [5]: 3.42 µM (inactive) | GI50 [6]: 2.26 µM (inactive) | GI50 [7]: 0.597 µM (active) | GI50 [8]: 1.83 µM (inactive) | GI50 [9]: 8.97 µM (inactive) | GI50 [10]: 5.9 µM (inactive) | GI50 [11]: 2.92 µM (inactive) | GI50 [12]: 3.49 µM (inactive) | GI50 [13]: 2.45 µM | GI50 [14]: 0.796 µM (active) | GI50 [15]: 2.75 µM (inactive) | GI50 [16]: 1.79 µM (inactive) | GI50 [17]: 2.11 µM (inactive) | GI50 [18]: 4.21 µM (inactive) | GI50 [19]: 1.47 µM (inactive) | GI50 [20]: 1.94 µM (inactive) | GI50 [21]: 1.61 µM (inactive) | GI50 [22]: 1.86 µM (inactive) | GI50 [23]: 5.68 µM (inactive) | GI50 [24]: 0.857 µM (active) | GI50 [25]: 3.71 µM (inactive) | GI50 [26]: 6.89 µM (inactive) | GI50 [27]: 3.37 µM (inactive) | GI50 [28]: 1.66 µM (inactive) | GI50 [29]: 5.4 µM (inactive) | GI50 [30]: 1.71 µM (inactive) | GI50 [31]: 3.77 µM (inactive) | GI50 [32]: 3.86 µM (inactive) | GI50 [33]: 3.37 µM (inactive) | GI50 [34]: 2.92 µM (inactive) | GI50 [35]: 3.48 µM (inactive) | GI50 [36]: 22.9 µM (inactive) | GI50 [37]: 20.5 µM (inactive) | GI50 [38]: 3.92 µM (inactive) | GI50 [39]: 3.33 µM (inactive) | GI50 [40]: 0.164 µM (active) | GI50 [41]: 1.88 µM (inactive) | GI50 [42]: 9.29 µM (inactive) | GI50 [43]: 7.11 µM (inactive) | GI50 [44]: 2.59 µM (inactive) | GI50 [45]: 7.8 µM (inactive) | GI50 [46]: 15.9 µM (inactive) | GI50 [47]: 4.09 µM (inactive) | GI50 [48]: 37.3 µM (inactive) | GI50 [49]: 2.39 µM (inactive) | GI50 [50]: 10.5 µM (inactive) | GI50 [51]: 18.4 µM (inactive) | GI50 [52]: 1.21 µM (inactive) | GI50 [53]: 2.75 µM (inactive) | GI50 [54]: 2.44 µM (inactive) | GI50 [55]: 1.76 µM (inactive) | GI50 [56]: 6.17 µM (inactive) | GI50 [57]: 9.91 µM (inactive) | GI50 [58]: 12.3 µM (inactive) | GI50 [59]: 2.77 µM (inactive)

O=CNc1ccccc1OCCOc1ccccc1NC=O
GI50 [1]: > 100 µM (inactive) | GI50 [2]: > 100 µM (inactive) | GI50 [3]: > 100 µM (inactive) | GI50 [4]: > 100 µM (inactive) | GI50 [5]: > 100 µM (inactive) | GI50 [6]: > 100 µM (inactive) | GI50 [7]: > 100 µM (inactive) | GI50 [8]: > 100 µM (inactive) | GI50 [9]: > 100 µM (inactive) | GI50 [10]: > 100 µM (inactive) | GI50 [11]: > 100 µM (inactive) | GI50 [12]: > 100 µM (inactive) | GI50 [13]: > 100 µM | GI50 [14]: > 100 µM (inactive) | GI50 [15]: > 100 µM (inactive) | GI50 [16]: > 100 µM (inactive) | GI50 [17]: > 100 µM (inactive) | GI50 [18]: > 100 µM (inactive) | GI50 [19]: > 100 µM (inactive) | GI50 [20]: > 100 µM (inactive) | GI50 [21]: > 100 µM (inactive) | GI50 [22]: > 100 µM (inactive) | GI50 [23]: > 100 µM (inactive) | GI50 [24]: > 100 µM (inactive) | GI50 [25]: > 100 µM (inactive) | GI50 [26]: > 100 µM (inactive) | GI50 [27]: > 100 µM (inactive) | GI50 [28]: > 100 µM (inactive) | GI50 [29]: > 100 µM (inactive) | GI50 [30]: > 100 µM (inactive) | GI50 [31]: > 100 µM (inactive) | GI50 [32]: > 100 µM (inactive) | GI50 [33]: > 100 µM (inactive) | GI50 [34]: > 100 µM (inactive) | GI50 [35]: > 100 µM (inactive) | GI50 [36]: > 100 µM (inactive) | GI50 [37]: > 100 µM (inactive) | GI50 [38]: > 100 µM (inactive) | GI50 [39]: > 100 µM (inactive) | GI50 [40]: > 100 µM (inactive) | GI50 [41]: > 100 µM (inactive) | GI50 [42]: > 100 µM (inactive) | GI50 [43]: > 100 µM (inactive) | GI50 [44]: > 100 µM (inactive) | GI50 [45]: > 100 µM (inactive) | GI50 [46]: > 100 µM (inactive) | GI50 [47]: > 100 µM (inactive) | GI50 [48]: > 100 µM (inactive) | GI50 [49]: > 100 µM (inactive) | GI50 [50]: > 100 µM (inactive) | GI50 [51]: > 100 µM (inactive) | GI50 [52]: > 100 µM (inactive) | GI50 [53]: > 100 µM (inactive) | GI50 [54]: > 100 µM (inactive) | GI50 [55]: > 100 µM (inactive) | GI50 [56]: > 100 µM (inactive) | GI50 [57]: > 100 µM (inactive) | GI50 [58]: > 100 µM (inactive) | GI50 [59]: > 100 µM (inactive)
